Assays:
THP-1 cells = experiment: LPS-stimulated inflammatory mediators in THP-1 cells; assay type: cell-based, human; settings: 1 hour pre-incubation, LPS 1 µg/mL overnight, various concentrations (KDT501 6.25 to 50 µM)
Protocol: THP-1 cells were maintained in RPMI1640 in the presence of 10% serum according to manufacturer's instructions as described earlier. The cells were pre-incubated with various concentrations of test compounds (KDT501, rosiglitazone, telmisartan, DHA or PGJ2) in the presence of 1% serum medium for 1 hour, then stimulated with TNF-α (10 ng/ml) or LPS (1 µg/ml) overnight (16–20 hours. Cytokines were assayed using a Milliplex MAP human cytokine/chemokine kit and Luminex 100™ IS. Data were analyzed using a five-parameter logistic method and represented as Mean ±SD of four independent samples.

[1] = system: human subcutaneous adipocytes; experiment: Lipogenesis in human subcutaneous adipocytes (Oil Red O); assay type: cell-based; settings: 10 days, relative to DMSO
Protocol: (§1) Murine 3T3-L1 preadipocytes were maintained in DMEM supplemented with 10% FBS as described earlier. Cells were seeded at an initial density of approximately […] in 24-well plates. After confluence, cells were treated with KDT501 ([…]), rosiglitazone (10 µM), or DMSO on day 0. Cells were differentiated in differentiation medium consisting of 10% FBS/DMEM, 0.5 mM methylisobutylxanthine, 0.5 µM dexamethasone, and 10 µg/mL insulin. After two days, the medium was changed to progression medium consisting of 10 µg/mL insulin in 10% FBS/DMEM followed by 2 more days in maintenance medium consisting of 10% FBS/DMEM. KDT501 or rosiglitazone were included throughout the maturation phase (day 6/day 7). Human subcutaneous primary adipocytes were maintained as described for 3T3L1 adipocytes and treated with rosiglitazone (1 µM), KDT501 (10 µM), telmisartan (10 µM), DHA (10 µM) or PGJ2 (10 µM) for 10 days. Intracellular lipid was quantified with Oil O-Red staining using an adipogenesis assay kit from (Millipore, Billerica, MA). The medium was carefully discarded and washed twice with PBS. 300 µL Of Oil O-Red solution were added and incubated for 15 minutes at room temperature. The cells were washed, and bound dye was extracted and transferred to a 96 well plate. Absorbance was measured at 530 nm using a plate reader (Thermo Electron Corp.). Fold change relative to DMSO control was calculated from four independent wells for each condition. Data represent Mean ± SD.

[2] = system: Zucker Diabetic Fatty (ZDF) rats; experiment: ZDF rats, oral dosing twice daily (weight, HbA1c, glucose, OGTT); assay type: in vivo, rat
Protocol: Male ZDF rats were obtained from Charles River Laboratories at approximately 7 weeks of age. Rats were maintained ad lib on Purina #5008 diet, delivering approximately 17% of calories from fat. Animals with fasting glucose between 150–350 mg/dL were randomized based on glucose and body weight. Test articles were prepared in 0.5% (w/v) methylcellulose + 0.2% (w/v) Tween 80 and given by oral gavage twice daily. Rats (10/group, 6 treatment groups) were administered KDT501 (100, 150, or 200 mg/kg), metformin (200 mg/kg), pioglitazone (30 mg/kg) or vehicle control for up to 32 days. Body weights and food intake were determined weekly. Blood was collected via tail bleed and whole blood glucose was measured on days 1, 8, 15 and 29. Blood was collected in 5 animals on days 15 and 29 for determination of glucose, insulin, lipids, hematocrit, and HbA1c. Animals were fasted overnight and OGTT was conducted on days 31 and 32 for determination of glucose and insulin levels. A second ZDF rat study was conducted and the resulting data on total cholesterol are presented. Statistical calculations were performed (JMP version, SAS Institute, Cary, NC). One-way ANOVA with Dunnett's test for post hoc determinations were used to compare vehicle treated control. Data were expressed as mean ± SEM.

ZDF rats = experiment: Second ZDF rat study (total cholesterol, triglycerides in plasma); assay type: in vivo; settings: twice daily oral
Protocol: Blood was collected via tail bleed and whole blood glucose was measured on days 1, 8, 15 and 29. Blood was collected in 5 animals on days 15 and 29 for determination of glucose, insulin, lipids, hematocrit, and HbA1c. Animals were fasted overnight and OGTT was conducted on days 31 and 32 for determination of glucose and insulin levels. A second ZDF rat study was conducted and the resulting data on total cholesterol are presented. Statistical calculations were performed (JMP version, SAS Institute, Cary, NC). One-way ANOVA with Dunnett's test for post hoc determinations were used to compare vehicle treated control. Data were expressed as mean ± SEM.

DIO mice = experiment: DIO mice, oral dosing twice daily (body fat, OGTT); assay type: in vivo, C57Bl6/J male mice; settings: for OGTT glucose AUC / OGTT insulin AUC: four weeks, vs controls
Protocol: C57Bl6/J male mice were 15 weeks old at the start of the experiment. In general, DIO models are initiated at an early age to evaluate effects on obesity. However, older, overweight mice were used in this study to represent middle-aged human subjects for the assessment of metabolic parameters associated with weight loss/diabetes. The mice were housed individually in cages at 72±4°F with a relative humidity of 30–70% with 12 hour light- dark cycle. High fat diet (40% Cal) TD95217 (Teklad Custom Research Diet) was used in this study. The test compounds were administered orally twice per day at 12 hour intervals (10 mL/kg) in 0.5% methylcellulose and 0.2% Tween 80 (w/v). Mice were randomly allocated on the basis of body weight to seven groups (N = 10/group), with five animals for the oral glucose tolerance test (OGTT) and 5 animals for the insulin tolerance test. […] Body weight and food consumption were determined weekly. After 30 days, the mice were fasted overnight, blood was drawn through the tail vein and baseline blood glucose was measured using a glucose analyzer. One hour later, mice were given an oral gavage of glucose solution in water (4 ml/kg, 2 g/kg) and blood samples were taken at 15, 30, 60, and 120 min to determine plasma glucose and insulin levels. Five days before the start of the experiment (t = −5 days) and again at the end of the experiment (t = 28 days), body fat was determined using QNMR. With the exception of the group treated with 200 mg/kg KDT501, 10 animals/group were used in the determinations. Insulin and HbA1c glucose levels were determined on days 1, 15 and 29. Statistical calculations were performed (JMP version, SAS Institute, Cary, NC). One-way ANOVA with Dunnett's test for post hoc determinations were used to compare vehicle treated control. Data were expressed as mean ± SEM.

[3] = system: human subcutaneous adipocytes; experiment: Gene expression profile and gene ontology in human subcutaneous adipocytes; assay type: cell-based; settings: 5 days
Protocol: Human subcutaneous primary adipocytes were maintained as described earlier. Cells were seeded at an initial density of approximately 2×10^6 cells in 6-well plates with PGM-2 medium (2 mL medium/well) and allowed to grow for 24 hr to confluence. Cells were treated with test compounds KDT501 (25 µM), rosiglitazone (1 µM), telmisartan (10 µM), or DMSO in adipocyte differentiating medium. The differentiation medium consisted of indomethacin, methylisobutylxanthine, dexamethasone, and insulin from PGM-2 single aliquots. After 5 days, the cells were washed in PBS, frozen in liquid nitrogen and shipped to Expression Analysis (Durham, NC) in dry ice. Three independent plates were used for each condition. RNA was extracted using the miRNeasy Mini Kit (Qiagen) as described by the manufacturer. RNA was isolated and expression profiling was performed using the Ambion WT Expression Kit (Life Technologies). Labeled target, which was hybridized to GeneChip Human Gene 1.0 ST Arrays (Affymetrix), was prepared essentially as described by the manufacturer. This cDNA was then used as a template for in vitro transcription using T7 RNA Polymerase to produce anti-sense RNA, which was then converted into single-stranded sense cDNA that was fragmented and labeled with biotin prior to hybridization to the GeneChip Arrays. […]

3T3L1 adipocytes = experiment: Lipogenesis in 3T3L1 adipocytes (Oil Red O); assay type: cell-based, murine; settings: 10 µM, 6 days, relative to DMSO
Protocol: as §1, with “The cells were washed, and bound dye was extracted and transferred to a 96 well plate.” left out, “Data represent Mean ± SD.” left out

RAW264.7 cells = experiment: LPS-activated PGE2 and NO in RAW264.7 cells; assay type: cell-based; settings: results not shown
PPARγ = target: T1, PPARγ (Homo sapiens, UniProt P37231); experiment: PPARγ reporter assay (Indigo Biosciences); assay type: cell-based
T1 sequence (P37231 1-505): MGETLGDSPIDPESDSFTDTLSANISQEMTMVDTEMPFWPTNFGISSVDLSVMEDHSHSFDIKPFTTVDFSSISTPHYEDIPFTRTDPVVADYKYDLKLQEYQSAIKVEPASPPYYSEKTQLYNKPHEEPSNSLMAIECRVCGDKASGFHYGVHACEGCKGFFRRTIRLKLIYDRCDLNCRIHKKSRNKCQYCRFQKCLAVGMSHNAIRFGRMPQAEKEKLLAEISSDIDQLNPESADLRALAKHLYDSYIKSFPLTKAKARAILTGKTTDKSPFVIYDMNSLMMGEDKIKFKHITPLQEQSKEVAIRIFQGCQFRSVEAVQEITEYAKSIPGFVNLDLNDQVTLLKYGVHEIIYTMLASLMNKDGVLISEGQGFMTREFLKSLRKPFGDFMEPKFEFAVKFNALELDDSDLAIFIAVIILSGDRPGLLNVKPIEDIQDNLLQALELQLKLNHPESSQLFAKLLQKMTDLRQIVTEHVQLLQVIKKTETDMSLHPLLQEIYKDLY
Protocol: PPAR assay kits from Indigo Biosciences and supplemented protocols were used in this study. Briefly, the reporter cells were treated in triplicates with various concentrations of KDT501 (25–0.78 µM). Telmisartan (10–0.625 µM), GW590735 (10–0.03 µM), and GW0742 (1–0.01 µM) were used as positive controls for PPARγ, PPARα and PPARδ respectively. […]. Cells were incubated for 20 hours as per the protocol and read using a luminometer (Victor2, Perkin Elmer). Average relative light unit (RLU) values from blank wells were subtracted from all the samples. The final data were compared with DMSO control and statistical analyses were performed using GraphPad Prism.

CC/C=C\C/C=C\C/C=C\C/C=C\C/C=C\C/C=C\CCC(=O)O [DHA]
LPS stimulated IL-6 (THP-1 cells): inhibited these cytokines in a concentration-dependent manner
LPS stimulated MCP-1 (THP-1 cells): inhibited these cytokines in a concentration-dependent manner
LPS stimulated RANTES (THP-1 cells): inhibited these cytokines in a concentration-dependent manner
lipogenesis, fold increase ([1]; 10 µM): No significant changes

CCCCC/C=C/C=C1/C(=O)C=C[C@@H]1C/C=C\CCCC(=O)O [PGJ2, 5-deoxy-Δ12,14-PGJ2]
LPS stimulated IL-6 (THP-1 cells): inhibited these cytokines in a concentration-dependent manner
LPS stimulated MCP-1 (THP-1 cells): inhibited these cytokines in a concentration-dependent manner
LPS stimulated RANTES (THP-1 cells): inhibited these cytokines in a concentration-dependent manner
lipogenesis, fold increase ([1]; 10 µM): 8.8 fold

CN(C)C(=N)N=C(N)N [metformin]
body weight ([2]; 200 mg/kg twice daily oral (metformin group)): gained weight
total cholesterol in plasma (ZDF rats; metformin group): neither metformin nor pioglitazone had this effect
OGTT glucose AUC (DIO mice; 200 mg/kg twice per day oral): significantly reduced
OGTT insulin AUC (DIO mice; 200 mg/kg twice per day oral): significantly reduced
fat mass by the end of the study (QNMR) (DIO mice; 200 mg/kg twice per day oral, vs vehicle): Significant reduction

CCc1ccc(CCOc2ccc(CC3SC(=O)NC3=O)cc2)nc1 (centres unmarked) [pioglitazone]
HbA1c at the end of the study ([2]; 30 mg/kg twice daily oral): approximately half that of the vehicle-treated control
body weight ([2]; 30 mg/kg twice daily oral): gained weight
total cholesterol in plasma (ZDF rats; pioglitazone group): neither metformin nor pioglitazone had this effect
triglycerides in plasma (ZDF rats; pioglitazone group, day 15 and day 30): reduced triglycerides
OGTT glucose AUC (DIO mice; 30 mg/kg twice per day oral): significantly reduced
OGTT insulin AUC (DIO mice; 30 mg/kg twice per day oral): significantly reduced

CN(CCOc1ccc(CC2SC(=O)NC2=O)cc1)c1ccccn1 (centres unmarked) [rosiglitazone]
number of transcripts stimulated at least 2-fold ([3]; 1 µM): 62
LPS stimulated IL-6 (THP-1 cells): did not significantly affect
LPS stimulated MCP-1 (THP-1 cells): did not significantly affect
LPS stimulated RANTES (THP-1 cells): did not significantly affect
lipogenesis, fold increase ([1]; 1 µM): 10.3 fold
lipogenesis, fold increase (3T3L1 adipocytes): about 2.8 fold
induction of LPS-activated PGE2 (RAW264.7 cells): not with rosiglitazone

CCCc1nc2c(C)cc(-c3nc4ccccc4n3C)cc2n1Cc1ccc(-c2ccccc2C(=O)O)cc1 [telmisartan]
EC50 (PPARγ): 13.4 µM
number of transcripts changed ([3]; 10 µM, 5 up and 3 down, common to rosiglitazone and KDT501): 8
LPS stimulated IL-6 (THP-1 cells): inhibited these cytokines in a concentration-dependent manner
LPS stimulated MCP-1 (THP-1 cells): inhibited these cytokines in a concentration-dependent manner
LPS stimulated RANTES (THP-1 cells): inhibited these cytokines in a concentration-dependent manner
lipogenesis, fold increase ([1]; 10 µM): 3.5 fold
